Data reported in PMC3945162 (Psychopharmacology, 2013).
Where “and” joins values, the source holds several entries; their conditions need not be identical. Equal values may be shown once. Read-outs that look alike come from different tables or passages of the source.

Columns and labels:
Male Swiss–Webster mice = experiment: Locomotor activity; type: in vivo, mouse
[1] = test system: rats trained to discriminate DMT (5 mg/kg) from saline; type: in vivo, rat
[2] = test system: rats trained to discriminate DOM (0.5 mg/kg) from saline; type: in vivo, rat; conditions: for Maximum %DAR (drug-appropriate responding): i.p., at dose of maximum DAR
[3] = test system: rats trained to discriminate LSD (0.1 mg/kg) from saline; type: in vivo, rat; conditions: for Rate of responding at dose of maximum DAR / Maximum %DAR (drug-appropriate responding): LSD-trained rats; for Maximum %DAR (drug-appropriate responding): i.p., at dose of maximum DAR
[4] = test system: rats trained to discriminate MDMA (1.5 mg/kg) from saline; type: in vivo, rat; conditions: for Rate of responding at dose of maximum DAR / Maximum %DAR (drug-appropriate responding): MDMA-trained rats; for Maximum %DAR (drug-appropriate responding): i.p., at dose of maximum DAR
[5] = test system: rats trained to discriminate METH (1 mg/kg) from saline; type: in vivo, rat
Male Sprague-Dawley rats = experiment: Adverse effects observed during drug discrimination test sessions; type: in vivo, rat
human 5-HT1A receptor [6] = target: T1, human 5-HT1A receptor (Homo sapiens, UniProt P08908); experiment: [3H]8-OH-DPAT binding, HEK-5-HT1A
T1 sequence (P08908 1-422): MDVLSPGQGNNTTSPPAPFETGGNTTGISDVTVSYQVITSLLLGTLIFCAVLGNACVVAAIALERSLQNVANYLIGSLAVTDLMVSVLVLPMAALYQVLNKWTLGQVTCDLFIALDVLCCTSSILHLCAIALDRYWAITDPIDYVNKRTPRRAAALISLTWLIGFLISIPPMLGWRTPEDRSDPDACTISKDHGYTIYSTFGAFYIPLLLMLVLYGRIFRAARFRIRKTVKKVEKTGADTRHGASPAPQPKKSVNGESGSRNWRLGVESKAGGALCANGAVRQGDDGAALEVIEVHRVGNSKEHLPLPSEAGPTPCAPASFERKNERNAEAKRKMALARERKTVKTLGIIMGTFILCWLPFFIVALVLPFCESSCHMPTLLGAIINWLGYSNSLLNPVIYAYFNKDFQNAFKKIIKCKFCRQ

human 5-HT1A receptor [7] = target: T1, human 5-HT1A receptor; experiment: [35S]GTPγS binding functional assay, HEK-5-HT1A; type: biochemical; conditions: for Emax: read-out: 5-HT1A Function [35S]GTPγS Binding % maximal effect
human 5-HT2A receptor [8] = target: T2, human 5-HT2A receptor (Homo sapiens, UniProt P28223); experiment: [125I]DOI binding, HEK-5-HT2A cells
human 5-HT2A receptor [9] = target: T2, human 5-HT2A receptor; experiment: [3H]AA release from HEK-5-HT2A cells; type: cell-based; conditions: for Emax: read-out: 5-HT2A Function [3H]AA release % maximal effect
human 5-HT2A receptor [10] = target: T2, human 5-HT2A receptor; experiment: IP-1 formation, HEK-5-HT2A cells; type: cell-based; conditions: for Emax: read-out: 5-HT2A Function IP-1 formation % maximal effect
human 5-HT2C receptor [11] = target: T3, human 5-HT2C receptor (Homo sapiens, UniProt P28335); experiment: biochemical; type: binding
T3 sequence (P28335 33-458): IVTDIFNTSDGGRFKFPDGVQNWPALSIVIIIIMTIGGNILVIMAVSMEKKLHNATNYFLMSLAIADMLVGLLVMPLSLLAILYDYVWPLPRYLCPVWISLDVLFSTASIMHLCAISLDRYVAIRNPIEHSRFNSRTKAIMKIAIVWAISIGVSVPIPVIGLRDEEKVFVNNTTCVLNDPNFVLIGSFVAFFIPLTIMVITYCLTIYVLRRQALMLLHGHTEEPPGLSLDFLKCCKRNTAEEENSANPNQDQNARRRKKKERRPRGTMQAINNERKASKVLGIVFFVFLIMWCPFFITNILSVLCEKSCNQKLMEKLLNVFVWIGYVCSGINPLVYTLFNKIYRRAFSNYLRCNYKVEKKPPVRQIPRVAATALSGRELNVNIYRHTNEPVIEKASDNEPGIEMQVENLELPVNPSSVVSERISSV

human 5-HT2C receptor [12] = target: T3, human 5-HT2C receptor; experiment: cell-based; conditions: for Emax: read-out: 5-HT2C Function IP-formation % maximal effect
hDAT [13] = target: T4, hDAT (Homo sapiens, UniProt Q01959); experiment: [125I]RTI-55 binding, HEK-hDAT cells
hDAT [14] = target: T4, hDAT; experiment: [3H]Dopamine uptake, HEK-hDAT cells; type: cell-based
hDAT [15] = target: T4, hDAT; experiment: [3H]Dopamine release, HEK-hDAT cells; type: cell-based; conditions: HEK-hDAT cells
hSERT [16] = target: T5, hSERT (Homo sapiens, UniProt P31645); experiment: [125I]RTI-55 binding, HEK-hSERT cells
hSERT [17] = target: T5, hSERT; experiment: [3H]Serotonin uptake, HEK-hSERT cells; type: cell-based
hSERT [18] = target: T5, hSERT; experiment: [3H]Serotonin release, HEK-hSERT cells; type: cell-based
hNET [19] = target: T6, hNET (Homo sapiens, UniProt P23975); experiment: biochemical; type: binding
hNET [20] = target: T6, hNET; experiment: cell-based
hNET [21] = target: T6, hNET; experiment: cell-based; remark: listed apart in the source
[22] = DMT-trained rats, 15 min pretreatment
[23] = METH-trained rats, 15 min pretreatment
[24] = 10 mg/kg, METH-trained rats, 15 min

T4 sequence (Q01959 whole entry): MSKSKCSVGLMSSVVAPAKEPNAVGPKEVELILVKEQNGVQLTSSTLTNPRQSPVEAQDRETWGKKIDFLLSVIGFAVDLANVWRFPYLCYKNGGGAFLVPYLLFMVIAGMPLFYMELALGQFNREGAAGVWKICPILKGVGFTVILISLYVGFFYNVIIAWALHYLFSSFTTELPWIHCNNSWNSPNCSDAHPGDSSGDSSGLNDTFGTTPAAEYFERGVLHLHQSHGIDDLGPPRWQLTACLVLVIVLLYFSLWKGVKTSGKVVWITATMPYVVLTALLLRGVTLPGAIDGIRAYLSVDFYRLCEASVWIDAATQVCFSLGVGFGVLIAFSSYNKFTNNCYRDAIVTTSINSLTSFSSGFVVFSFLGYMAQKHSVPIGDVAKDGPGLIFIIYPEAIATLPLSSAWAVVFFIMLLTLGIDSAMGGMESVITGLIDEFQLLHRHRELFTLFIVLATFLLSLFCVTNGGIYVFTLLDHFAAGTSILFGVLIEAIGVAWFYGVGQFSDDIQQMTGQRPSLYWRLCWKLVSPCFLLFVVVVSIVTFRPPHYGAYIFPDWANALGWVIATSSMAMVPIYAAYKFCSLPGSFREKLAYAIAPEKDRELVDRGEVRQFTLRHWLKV
T2 sequence (P28223 whole entry): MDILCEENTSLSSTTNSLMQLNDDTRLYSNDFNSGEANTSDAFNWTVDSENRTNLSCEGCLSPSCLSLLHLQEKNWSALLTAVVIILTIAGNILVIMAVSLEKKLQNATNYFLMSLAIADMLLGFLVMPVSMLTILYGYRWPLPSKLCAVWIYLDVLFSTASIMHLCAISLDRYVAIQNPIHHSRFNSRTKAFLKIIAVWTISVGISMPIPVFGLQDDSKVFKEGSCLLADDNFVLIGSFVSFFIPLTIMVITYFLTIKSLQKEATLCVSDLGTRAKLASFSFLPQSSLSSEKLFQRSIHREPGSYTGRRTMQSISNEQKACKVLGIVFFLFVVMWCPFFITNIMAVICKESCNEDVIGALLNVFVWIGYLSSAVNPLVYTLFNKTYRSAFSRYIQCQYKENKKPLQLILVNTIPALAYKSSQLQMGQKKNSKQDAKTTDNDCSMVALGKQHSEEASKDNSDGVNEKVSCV
T5 sequence (P31645 whole entry): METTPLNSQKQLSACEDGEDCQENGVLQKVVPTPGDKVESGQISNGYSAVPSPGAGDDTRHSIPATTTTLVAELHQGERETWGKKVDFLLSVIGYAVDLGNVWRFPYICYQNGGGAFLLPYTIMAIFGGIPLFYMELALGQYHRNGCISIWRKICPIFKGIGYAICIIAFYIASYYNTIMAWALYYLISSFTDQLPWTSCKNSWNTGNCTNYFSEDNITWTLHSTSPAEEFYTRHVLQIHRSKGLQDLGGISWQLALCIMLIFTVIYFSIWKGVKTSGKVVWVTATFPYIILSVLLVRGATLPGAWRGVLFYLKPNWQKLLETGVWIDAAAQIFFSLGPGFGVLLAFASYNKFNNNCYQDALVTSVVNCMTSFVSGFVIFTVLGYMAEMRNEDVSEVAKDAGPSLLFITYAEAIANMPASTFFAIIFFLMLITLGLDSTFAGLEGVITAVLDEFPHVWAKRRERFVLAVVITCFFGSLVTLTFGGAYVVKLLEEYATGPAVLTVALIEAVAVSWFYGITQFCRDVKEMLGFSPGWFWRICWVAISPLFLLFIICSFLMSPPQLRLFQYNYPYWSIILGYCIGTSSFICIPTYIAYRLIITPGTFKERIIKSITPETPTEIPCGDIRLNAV
T6 sequence (P23975 whole entry): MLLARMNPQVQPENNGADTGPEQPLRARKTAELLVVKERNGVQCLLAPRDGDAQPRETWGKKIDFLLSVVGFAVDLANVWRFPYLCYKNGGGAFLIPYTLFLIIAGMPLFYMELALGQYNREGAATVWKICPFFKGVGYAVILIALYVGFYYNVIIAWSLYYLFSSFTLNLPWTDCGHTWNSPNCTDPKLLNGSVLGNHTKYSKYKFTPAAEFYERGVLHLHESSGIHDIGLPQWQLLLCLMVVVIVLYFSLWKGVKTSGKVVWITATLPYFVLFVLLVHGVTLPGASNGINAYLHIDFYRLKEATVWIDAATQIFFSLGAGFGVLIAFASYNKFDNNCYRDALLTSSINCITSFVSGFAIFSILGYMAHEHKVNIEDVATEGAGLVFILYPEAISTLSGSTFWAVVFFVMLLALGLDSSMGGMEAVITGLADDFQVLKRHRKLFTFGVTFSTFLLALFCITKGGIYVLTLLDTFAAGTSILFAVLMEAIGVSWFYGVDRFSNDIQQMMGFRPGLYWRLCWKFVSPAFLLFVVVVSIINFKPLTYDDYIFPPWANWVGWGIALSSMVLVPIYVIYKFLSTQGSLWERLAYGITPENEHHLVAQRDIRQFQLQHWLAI

## COc1cc(CCN)c(OC)cc1C [2C-D, 2,5-dimethoxy-4-methylphenethylamine]
Male Swiss–Webster mice; 100 mg/kg i.p., within 30 min
  Lethality (mice): 8/8
Male Swiss–Webster mice; mice, i.p.
  Doses producing stimulant effects on locomotor activity: 3 mg/kg
  Duration of depressant effects: 20 to 40 min
  Duration of stimulant effects: 180 min
  Onset of depressant effects (within, after injection): ≤ 10 min
  Onset of stimulant effects (within, after injection): ≤ 50 min
[1]; [22]
  Rate of responding at dose of maximum DAR: 0.154±0.070 resp/s
[1]; DMT-trained rats, 70 min pretreatment
  Rate of responding at dose of maximum DAR: 0.332±0.067 resp/s
[1]; DMT-trained rats, i.p., 70 min pretreatment, at dose of maximum DAR
  Maximum %DAR (drug-appropriate responding): 83±17 %
[2]; 15 min pretreatment
  Rate of responding at dose of maximum DAR: 0.383±0.038 resp/s
  Maximum %DAR (drug-appropriate responding): 100±0 %
[2]; 70 min pretreatment
  Rate of responding at dose of maximum DAR: 0.338±0.187 resp/s
[3]; 15 min pretreatment
  Rate of responding at dose of maximum DAR: 0.385±0.060 resp/s
  Maximum %DAR (drug-appropriate responding): 83±17 %
[3]; 70 min pretreatment
  Rate of responding at dose of maximum DAR: 0.379±0.054 resp/s
  Maximum %DAR (drug-appropriate responding): 83±17 %
[4]; 15 min pretreatment
  Rate of responding at dose of maximum DAR: 0.402±0.073 resp/s
  Maximum %DAR (drug-appropriate responding): 61% and 61±20 ^2%
[4]; 70 min pretreatment
  Rate of responding at dose of maximum DAR: 0.547±0.127 resp/s
[5]; [23]
  Rate of responding at dose of maximum DAR: 0.190±0.086 resp/s
[5]; METH-trained rats, 70 min pretreatment
  Rate of responding at dose of maximum DAR: 0.072±0.032 resp/s
[5]; METH-trained rats, i.p., 15 min pretreatment, at dose of maximum DAR
  Maximum %DAR (drug-appropriate responding): 15±15 ^2%
Male Sprague-Dawley rats; [24]
  Rats that failed to complete the first fixed ratio: 4/6
  Reddening of the extremities (rats affected/tested): 2/6
Male Sprague-Dawley rats; 50 mg/kg, 70 min
  Rats with salivation and failure to complete the first fixed ratio: Two of three
Human 5-HT1A receptor [6]
  Ki: 1630 ± 150 nM
Human 5-HT1A receptor [7]
  EC50: > 10000 nM
  Emax: < 25%
Human 5-HT2A receptor [8]
  Ki: 23.9 ± 3.9 nM
Human 5-HT2A receptor [9]
  EC50: 153 ± 28 nM
  Emax: 81.1 ± 9.7%
Human 5-HT2A receptor [10]
  EC50: 145 ± 39 nM
  Emax: 93 ± 6.7%
Human 5-HT2C receptor [11]
  Ki: 12.7 ± 1.3 nM
Human 5-HT2C receptor [12]
  EC50: 71.1 ± 8 nM
  Emax: 100 ± 14%
hDAT [13]
  Ki: > 10000 nM
hDAT [14]
  IC50: > 10000 nM
hDAT [15]
  [3H]Dopamine release % METH maximal effect: ND Minimal
hSERT [16]
  Ki: > 10000 nM
hSERT [17]
  IC50: > 8400 nM
hSERT [18]
  [3H]Serotonin release % PCA maximal effect: ND Minimal
hNET [19]
  Ki: > 8500 nM
hNET [20]
  IC50: > 9200 nM
hNET [21]
  [3H]NE release % METH maximal effect: ND Minimal

## COc1cc(CCN)c(OC)cc1Cl [2C-C, 2,5-dimethoxy-4-chlorophenethylamine]
Male Swiss–Webster mice; 100 mg/kg i.p., at 30 min
  Convulsions (mice affected/tested): 2/8
  Tremors (mice affected/tested): 6/8
Male Swiss–Webster mice; 100 mg/kg i.p., within 120 min
  Lethality (mice): 1/8
Male Swiss–Webster mice; mice, i.p.
  Onset of depressant effects (within, after injection): ≤ 10 min
[1]; [22]
  Rate of responding at dose of maximum DAR: 0.235±0.098 resp/s
[1]; rat, in vivo
  Dose(s) that decreased response rate: 10 mg/kg
[2]; 15 min pretreatment
  Rate of responding at dose of maximum DAR: 0.366±0.070 resp/s
  Maximum %DAR (drug-appropriate responding): 82±16 %
[3]; 15 min pretreatment
  Rate of responding at dose of maximum DAR: 0.200±0.079 resp/s
  Maximum %DAR (drug-appropriate responding): 75% and 75±25 ^2%
[3]; rat, in vivo
  Dose(s) that decreased response rate: 10 mg/kg
[4]; 15 min pretreatment
  Rate of responding at dose of maximum DAR: 0.244±0.086 resp/s
  Maximum %DAR (drug-appropriate responding): 89±11 %
[4]; rat, in vivo
  Dose(s) that decreased response rate: 2.5 mg/kg
[5]; [23]
  Rate of responding at dose of maximum DAR: 0.156±0.096 resp/s
[5]; rat, in vivo
  Dose(s) that decreased response rate: 25 mg/kg
Male Sprague-Dawley rats; 25 mg/kg i.p.
  Reddening of the extremities (rats affected/tested): 3/3
  Salivation (rats affected/tested): 1/3
Human 5-HT1A receptor [6]
  Ki: 740 ± 170 nM
Human 5-HT1A receptor [7]
  EC50: > 10000 nM
  Emax: < 25%
Human 5-HT2A receptor [8]
  Ki: 5.47 ± 0.68 nM
Human 5-HT2A receptor [9]
  EC50: 13.9 ± 6.1 nM
  Emax: 64.2 ± 2.2%
Human 5-HT2A receptor [10]
  EC50: 40.1 ± 4.7 nM
  Emax: 102 ± 5.5%
Human 5-HT2C receptor [11]
  Ki: 5.4 ± 1.2 nM
Human 5-HT2C receptor [12]
  EC50: 24.2 ± 5.6 nM
  Emax: 93.5 ± 6.5%
hDAT [13]
  Ki: > 10000 nM
hDAT [14]
  IC50: > 10000 nM
hDAT [15]
  [3H]Dopamine release % METH maximal effect: ND Minimal
hSERT [16]
  Ki: > 10000 nM
hSERT [17]
  IC50: > 9600 nM
hSERT [18]
  [3H]Serotonin release % PCA maximal effect: ND Minimal
hNET [19]
  Ki: > 7600 nM
hNET [20]
  IC50: > 9500 nM
hNET [21]
  [3H]NE release % METH maximal effect: ND Minimal
